Laboratory results published in patent US8546391B2, “Thiadiazole and oxadiazole derivatives, preparation thereof and therapeutic use thereof” (Sanofi, priority 2009, dated 2013).

How the values were obtained:
[1] = tested on: triglyceride biosynthesis; assay: in vitro inhibitory activity on triglyceride biosynthesis, cell test ([14C] glycerol incorporation in Chang liver cells); assay type: cell-based; conditions: compounds incubated 30 minutes, then [14C] glycerol incorporation for 6 hours, read-out: inhibitory activity on triglyceride biosynthesis, concentration that inhibits 50% of the activity
Experimental: These trials consisted in measuring the in vitro inhibitory activity of the compounds of the invention on a cell test.
Chang liver cells at 80% confluence are detached with trypsin-EDTA, 4 ml per 175 cm^2 flask. After centrifugation at 1300×g for 5 minutes, the cell pellet is washed once with PBS and then resuspended in whole medium. The number of cells and their viability are determined on Mallassez cells via the exclusion method with trypan blue.
150 000 cells are inoculated per well into a 24-well plate for a minimum of 3 hours in DMEM medium 4.5 g/l of glucose supplemented with 10% FCS and with antibiotics, and are maintained at 37° C. in an incubator with CO2 (5%).
After 3 hours, the cells have adhered, the medium is removed and replaced overnight with DMEM medium 4.5 g/l of glucose with 2% of BSA/oleate.
After culturing for 18 hours without serum, the test compounds are incubated for 30 minutes ([…], 30, 100, 300 and 1000 nM) with the cells, followed by addition of [^14C] glycerol (0.4 μCi/ml/well) for an incorporation time of 6 hours.
The supernatant is drawn off and the cells are recovered by treatment with trypsin-EDTA, 100 μl/well, for 5 minutes at 37° C. This cell suspension is then recovered in an Eppendorf tube and is washed with twice 500 μl of PBS. The centrifugation at 1300×g for 5 minutes allows recovery of the cell pellets, which may be frozen at −20° C. In order to extract the lipids from the cell pellet, 400 μl of a methanol/dichloromethane/trifluoroacetic acid mixture (50/50/0.1%) is used to resuspend the cells. Next, the cell membranes are destroyed by sonication on a water bath, for 30 minutes. The samples are filtered through a 0.45 μm filtered and then injected onto a C18 HPLC column of 4.6×75 mm, 3 μm with a mobile phase of 5% (H2O+0.1% TFA), 70% methanol, 25% dichloromethane, with a flow rate of 1.5 ml/minute. The radioactivity is measured using a Flo One C625TR machine (Perkin-Elmer).
The inhibitory activity on triglyceride biosynthesis is given by the concentration that inhibits 50% of the activity.

melting point [°C]	IC50 [1] [nM]	Structure (SMILES)
241	51	O=C(O)C[C@H]1CC[C@H](c2ccc(C(=O)Nc3nnc(COCC4CCCC4)s3)cc2)CC1 [Compound 40, trans-{4-[4-(5-cyclopentylmethoxymethyl[1,3,4]thiadiazol-2-ylcarbamoyl)phenyl]cyclohexyl}acetic acid]
–	271	O=C(Nc1nnc(Cc2ccccc2)s1)c1ccc(N[C@H]2CC[C@@H](C(=O)O)CC2)cc1 [Compound 68, cis-4-[4-(5-benzyl[1.3.4]thiadiazol-2-ylcarbamoyl)phenylamino]cyclohexanecarboxylic acid]

Structure (SMILES)	melting point [°C]	IC50 [1] [nM]
O=C(Nc1nnc(Cc2cccc(Cl)c2)s1)c1ccc(O[C@H]2CC[C@@H](C(=O)O)CC2)nc1 [Compound 63, cis-4-{5-[5-(3-chlorobenzyl)[1.3.4]thiadiazol-2-ylcarbamoyl]pyridin-2-yloxy}cyclohexanecarboxylic acid]	–	85
